From patent EP0344425A2, “N-[[(2,6-disubstituted)phenyl]-N'- arylalkyl] ureas as antihypercholesterolemic and antiatherosclerotic agents” (WARNER-LAMBERT COMPANY, priority 1988, dated 1989) come the findings set out here.

The assay has as its target acyl-CoA:cholesterol acyltransferase (ACAT). Nature of the assay: in vitro ACAT inhibition test (formation of radio-labeled cholesterol oleate from radio-labeled oleic acid in rabbit intestinal microsomes). It is filed as biochemical. Conditions: tissue preparation containing rabbit intestinal microsomes; acylation of cholesterol by oleic acid; read-out: IC₅₀.
Text: The test assesses the ability of a test compound to inhibit the acylation of cholesterol by oleic acid by measuring the amount of radio-labeled cholesterol oleate formed from radio-labeled oleic acid in a tissue preparation containing rabbit intestinal microsomes.
As for `CC(C)c1cccc(C(C)C)c1NC(=O)NCC(C)c1ccccc1` (stereo not shown) [Example 7], the IC50 was 35 nM.
`CC(C)c1cccc(C(C)C)c1NC(=O)NCCCc1ccccc1` [Example 8, N-[2,6-bis(1-Methylethyl)phenyl]-N′-(3-phenylpropyl)urea]: the IC50 turned out to be 191 nM.
Take `CCCCC(CCCC)(CNC(=O)Nc1c(C(C)C)cccc1C(C)C)c1ccccc1` [Example 5, N-[2,6-bis(1-Methylethyl)phenyl]-N′-(2-butyl-2-phenylhexyl)urea]: the IC50 is 30 nM.
As for `CC(C)c1cccc(C(C)C)c1NC(=O)N[C@H](C)c1cccc2ccccc12` [Example 12, [R]-N-[2,6-bis(1-Methylethyl)phenyl]-N′-[1-(1-naphthalenyl)ethyl]urea], the IC50 was determined as 35 nM.
With `CC(C)c1cccc(C(C)C)c1NC(=O)NCCc1cccc2ccccc12` [Example 10, N-[2,6-bis(1-Methylethyl)phenyl]-N′-[2-(1-naphthalenyl)ethyl]urea], the IC50 was found to be 41 nM.
In the case of `CC(C)c1cccc(C(C)C)c1NC(=O)NCCc1ccccc1` [Example 6, N-[2,6-bis(1-Methylethyl)phenyl]-N′-(2-phenylethyl)urea] it was 88 nM; in that of `CC(C)c1cccc(C(C)C)c1NC(=O)N[C@@H](C)c1cccc2ccccc12` [Example 13, [S]-N-[2,6-bis(1-Methylethyl)phenyl]-N′-[1-(1-naphthalenyl)ethyl]urea], 630 nM.
With `CCCC(CCC)(CNC(=O)Nc1c(C(C)C)cccc1C(C)C)c1ccccc1` [Example 1, N-[2,6-bis(1-Methylethyl)phenyl]-N′-(2-phenyl-2-propylpentyl)urea], the IC50 turned out to be 30 nM.
In the case of `CC(C)c1cccc(C(C)C)c1NC(=O)NCc1cccc2ccccc12` [Example 9, N-[2,6-bis(1-Methylethyl)phenyl]-N′-[(1-naphthalenyl)methyl]urea] it was 34 nM.
In the case of `CCC(CC)(CNC(=O)Nc1c(C(C)C)cccc1C(C)C)c1ccccc1` [Example 2, N-[2,6-bis(1-Methylethyl)phenyl]-N′-(2-ethyl-2-phenylbutyl)urea] it was 17 nM.
